Results as given in patent EP2524912A1, “Amine derivatives” (Bionomics Limited, priority 2011, dated 2012).

Each compound was assayed against human Kv1.3 (Homo sapiens, UniProt P22001) (assay: Kv1.3 patch-clamp electrophysiology (planar electrode, whole-cell, steady state current)). Conditions: CHO/Kv1.3 stable cell line; steady state current amplitude at end of 500 ms depolarising pulse to +40 mV; values given as ranges; read-out: IC50 (Kv1.3 ephys steady state).
Assay type: cell-based
Experimental: The inhibition data shown for the compounds of the list below was calculated using the steady state current amplitude at the end of the depolarising pulse in patch clamp evaluations (as described in the Pharmacology Example 2).
The human Kv1.3 construct (Kv1.3/pENTR, clone IOH61428) was purchased from Invitrogen and subcloned into pcDNA 3.2-DEST (Invitrogen). CHO-K1 cells obtained from ATCC (cat #CCL-61) were transfected with the Kv1.3/pcDNA3.2DEST construct and a stable cell line was developed through two rounds of limiting dilution under G418 selection. Positive (Kv1.3 expressing) clones were identified using electrophysiology.
CHO/Kv1.x stable cell lines were grown in a humidified atmosphere at 37 °C, 5% CO2 in T-75 flasks containing F12 Kaighn's medium supplemented with 10% fetal calf serum, 2 mM L-glutamine, 100 units/ml penicillin, 100 µg/ml streptomycin and 500 µg/ml G418 (to maintain selection). CHO/Kv1.1 and CHO/Kv1.5 cells used for patching were transferred to 33 °C for 48 hours prior to use.
Kv1.x currents were measured using a planar electrode version (Nanion Technologies GMBH) of the patch-clamp technique. Whole-cell Kv1.x current transients were evoked by 500 ms depolarising voltage pulses to +40 mV from a holding potential of -80 mV applied at 10 s intervals for Kv1.1 and Kv1.5 and at 30 s intervals for Kv1.3 to allow adequate time for recovery from inactivation. Cells were continuously bathed in a buffered saline solution containing (mM): 160 NaCl, 4.5 KCI, 2 CaCl2, 1 MgCl2, 5 glucose, 10 HEPES, pH 7.4, 290-310 mOsm.Kg^-1. The internal (pipette) solution contained (mM): 10 NaCl, 70 KF, 75 KCI, 2 MgCl2, 10 HEPES, 10 EGTA, pH 7.2, 290-310 mOsm.Kg^-1. Series resistance compensation (60-80%) was applied when the peak current amplitude exceeded 2 nA.
Compounds were initially dissolved in DMSO to 10 mM. After further dilution in DMSO, compounds were finally diluted in bath solution 1/200 (to give a final DMSO concentration of 0.5%) and applied directly to the recording chamber. Compounds were added at increasing concentrations allowing ample time for steady state block to be achieved between each concentration. Each compound was tested at 5-6 different concentrations on 2-3 cells. IC50 values can be determined by fitting the average normalised reduction of either the current integral or the steady state current amplitude at the end of the depolarising pulse obtained at each compound concentration to the Hill equation. The IC50 data reported herein is based on the steady state calculation.

Sequence of human Kv1.3 (P22001 whole entry): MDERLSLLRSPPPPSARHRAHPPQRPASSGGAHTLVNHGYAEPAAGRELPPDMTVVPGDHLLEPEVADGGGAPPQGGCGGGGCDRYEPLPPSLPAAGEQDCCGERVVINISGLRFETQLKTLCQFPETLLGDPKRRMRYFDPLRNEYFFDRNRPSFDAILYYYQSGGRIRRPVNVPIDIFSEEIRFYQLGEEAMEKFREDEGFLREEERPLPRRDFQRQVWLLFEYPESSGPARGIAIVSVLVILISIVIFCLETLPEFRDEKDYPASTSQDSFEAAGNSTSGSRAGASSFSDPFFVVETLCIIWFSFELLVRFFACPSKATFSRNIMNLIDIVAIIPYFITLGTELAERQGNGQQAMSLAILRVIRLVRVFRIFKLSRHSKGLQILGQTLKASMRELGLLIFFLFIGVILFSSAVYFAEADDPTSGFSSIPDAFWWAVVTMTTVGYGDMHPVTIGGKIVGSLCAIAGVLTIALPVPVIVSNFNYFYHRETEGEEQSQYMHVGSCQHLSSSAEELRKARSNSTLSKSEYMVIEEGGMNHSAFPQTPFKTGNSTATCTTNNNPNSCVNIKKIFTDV

| SMILES | IC50 [nM] |
| --- | --- |
| O=C(CS(=O)(=O)c1ccc(F)cc1)N(Cc1ccccn1)C(c1ccccc1)C1CC1 (stereo not shown) [Example 15, N-[cyclopropyl(phenyl)methyl]-2-[(4-fluorophenyl)sulfonyl]-N-(pyridin-2-ylmethyl)acetamide] | 200 to 1000 |
| CC(CC(=O)N(CCOc1ccccn1)C(C)c1ccc2c(c1)CCC2)c1ccc(F)cc1 (stereo not shown) [Example 46, N-[1-(2,3-dihydro-1H-inden-5-yl)ethyl]-3-(4-fluorophenyl)-N-[2-(pyridin-2-yloxy)ethyl]butanamide] | 50 to 200 |
| Cc1cccc(OCCN(C(=O)CCc2ccc(F)cc2)C(C)c2ccc3c(c2)CCC3)n1 (stereo not shown) [Example 53, N-[1-(2,3-dihydro-1H-inden-5-yl)ethyl]-3-(4-fluorophenyl)-N-[2-(6-methylpyridin-2-yloxy)ethyl]propanamide] | 50 to 200 |
| CC(CC(=O)N(Cc1ccccn1)C(c1ccc(Cl)cc1)C1CC1)S(=O)(=O)c1ccc(F)cc1 (stereo not shown) [Example 76, N-[(4-chlorophenyl)(cyclopropyl)methyl]-3-[(4-fluorophenyl)sulfonyl]-N-(pyridin-2-ylmethyl)butanamide] | 50 to 200 |
| CC(c1ccc2c(c1)CCC2)N(CCOc1ccccn1)C(=O)C1(c2ccc(Cl)cc2)CCC1 (stereo not shown) [Example 50, 1-(4-chlorophenyl)-N-[1-(2,3-dihydro-1H-inden-5-yl)ethyl]-N-[2-(pyridin-2-yloxy)ethyl]cyclobutanecarboxamide] | 200 to 1000 |
| CC(c1ccc2c(c1)SC(C)(C)O2)N(Cc1ccccn1)C(=O)CCc1ccc(F)cc1 (stereo not shown) [Example 54, N-[1-(2,2-dimethyl-1,3-benzoxathiol-5-yl)ethyl]-3-(4-fluorophenyl)-N-(pyridin-2-ylmethyl)propanamide] | 200 to 1000 |
| CC(c1ccc2c(c1)CCC2)N(CCOc1ccccn1)C(=O)CCc1ccc(F)cc1 (stereo not shown) [Example 47, N-[1-(2,3-dihydro-1H-inden-5-yl)ethyl]-3-(4-fluorophenyl)-N-[2-(pyridin-2-yloxy)ethyl]propanamide] | 50 to 200 |
| COc1ccc(CN(C(=O)CCc2ccc(F)cc2)C(C)c2ccccc2)cn1 (stereo not shown) [Example 43, 3-(4-fluorophenyl)-N-(1-phenylethyl)-N-(6-methoxypyridin-3-ylmethyl)propanamide] | 200 to 1000 |
| O=C(CCc1ccc(F)cc1)N(Cc1ccccn1)C(c1ccc(Cl)cc1)C1CC1 (stereo not shown) [Example 9, N-[cyclopropyl(4-chlorophenyl)methyl]-3-(4-fluorophenyl)-N-(pyridin-2-ylmethyl)propanamide] | 50 to 200 |
| CC(C)C(c1ccccc1)N(Cc1ccccn1)C(=O)CCc1ccc(F)cc1 (stereo not shown) [Example 20, 3-(4-fluorophenyl)-N-(2-methyl-1-phenylpropyl)-N-(pyridin-2-ylmethyl)propanamide] | 50 to 200 |
| CC(CC(=O)N(Cc1ccccn1)C(C)c1nncn1C)c1ccc(F)cc1 (stereo not shown) [Example 78, 3-(4-fluorophenyl)-N-[1-(4-methyl-4H-1,2,4-triazol-3-yl)ethyl]-N-(pyridin-2-ylmethyl)butanamide] | 200 to 1000 |
| CCC(c1ccc2c(c1)CC(C)O2)N(Cc1ccccn1)C(=O)CCc1ccc(F)cc1 (stereo not shown) [Example 24, 3-(4-fluorophenyl)-N-[1-(2-methyl-2,3-dihydro-1-benzofuran-5-yl)propyl]-N-(pyridin-2-ylmethyl)propanamide] | 50 to 200 |
| CC(CC(=O)N(CCOc1cccc(Cl)n1)C(C)c1ccc2c(c1)CCC2)c1ccc(F)cc1 (stereo not shown) [Example 44, N-[1-(2,3-dihydro-1H-inden-5-yl)ethyl]-3-(4-fluorophenyl)-N-[2-(6-chloropyridin-2-yloxy)ethyl]butanamide] | 200 to 1000 |
| CC(CCN(C(=O)c1cccnc1)C(C)c1ccc2c(c1)CCC2)c1ccc(F)cc1 (stereo not shown) [Example 68, N-[1-(2,3-dihydro-1H-inden-5-yl)ethyl]-N-[3-(4-fluorophenyl)butyl]pyridine-3-carboxamide] | 200 to 1000 |
| CC(c1ccc2c(c1)[S+]([O-])C(C)(C)O2)N(Cc1ccccn1)C(=O)CCc1cccc(C(F)(F)F)c1 (stereo not shown) [Example 63, N-[1-(2,2-dimethyl-3-oxido-1,3-benzoxathiol-5-yl)ethyl]-N-(pyridin-2-ylmethyl)-3-[3-(trifluoromethyl)phenyl]propanamide] | > 1000 |
| COCc1ccccc1C(C)N(Cc1ccccn1)C(=O)C1(S(=O)(=O)c2ccc(F)cc2)CC1 (stereo not shown) [Example 66, 1-[(4-fluorophenyl)sulfonyl]-N-{1-[2-(methoxymethyl)phenyl]ethyl}-N-(pyridin-2-ylmethyl)cyclopropanecarboxamide] | 50 to 200 |

| SMILES | IC50 [nM] |
| --- | --- |
| COc1ccc(C(C2CC2)N(Cc2ccccn2)C(=O)CCc2ccc(F)cc2)cc1 (stereo not shown) [Example 2, N-[cyclopropyl(4-methoxyphenyl)methyl]-3-(4-fluorophenyl)-N-(pyridin-2-ylmethyl)propanamide] | 50 to 200 |
| CC(c1ccc2c(c1)CCC2)N(CCOc1ccccn1)C(=O)CCCc1ccccc1 (stereo not shown) [Example 51, N-[1-(2,3-dihydro-1H-inden-5-yl)ethyl]-4-phenyl-N-[2-(pyridin-2-yloxy)ethyl]butanamide] | 50 to 200 |
| CC(c1ccc2c(c1)SC(C)(C)O2)N(Cc1ccccn1)C(=O)CCc1cccc(C(F)(F)F)c1 (stereo not shown) [Example 62, N-[1-(2,2-dimethyl-1,3-benzoxathiol-5-yl)ethyl]-N-(pyridin-2-ylmethyl)-3-[3-(trifluoromethyl)phenyl]propanamide] | 200 to 1000 |
| COc1ccc(C(C2CC2)N(Cc2ccccn2)C(=O)CC(C)c2ccc(F)cc2)cc1 (stereo not shown) [Example 1, N-[cyclopropyl(4-methoxyphenyl)methyl]-3-(4-fluorophenyl)-N-(pyridin-2-ylmethyl)butanamide] | < 50 |
| CC1(C)Oc2ccc(C(C3CC3)N(Cc3ccccn3)C(=O)COc3ccc(F)cc3)cc2S1(=O)=O (stereo not shown) [Example 77, N-[cyclopropyl(2,2-dimethyl-3,3-dioxido-1,3-benzoxathiol-5-yl)methyl]-2-(4-fluorophenoxy)-N-(pyridin-2-ylmethyl)acetamide] | 50 to 200 |
| CC(c1ccc2c(c1)CCC2)N(CCOc1cccc(Cl)n1)C(=O)CCc1ccc(F)cc1 (stereo not shown) [Example 45, N-[1-(2,3-dihydro-1H-inden-5-yl)ethyl]-3-(4-fluorophenyl)-N-[2-(6-chloropyridin-2-yloxy)ethyl]propanamide] | 200 to 1000 |
| Cc1cnc(C)c(OCCN(C(=O)CC(C)c2ccc(F)cc2)C(C)c2ccc3c(c2)CCC3)n1 (stereo not shown) [Example 41, N-[1-(2,3-dihydro-1H-inden-5-yl)ethyl]-3-(4-fluorophenyl)-N-[2-(3,6-dimethylpyrazin-2-yloxy)ethyl]butanamide] | 50 to 200 |
| CC(CCN(C(=O)CN1CCCC(F)(F)C1)C(C)c1ccc2c(c1)CCC2)c1ccc(F)cc1 (stereo not shown) [Example 69] | 50 to 200 |
| O=C(CCc1ccc(F)cc1)N(Cc1ccccn1)C(c1ccccc1)C1CCCC1 (stereo not shown) [Example 23, N-[cyclopentyl(phenyl)methyl]-3-(4-fluorophenyl)-N-(pyridin-2-ylmethyl)propanamide] | 50 to 200 |
| COCc1ccccc1C(C)N(Cc1ccccn1)C(=O)CS(=O)(=O)c1ccc(F)cc1 (stereo not shown) [Example 65, 2-[(4-fluorophenyl)sulfonyl]-N-{1-[2-(methoxymethyl)phenyl]ethyl}-N-(pyridin-2-ylmethyl)acetamide] | > 1000 |
| Cc1cccc(OCCN(C(=O)CC(C)c2ccc(F)cc2)C(C)c2ccc3c(c2)CCC3)n1 (stereo not shown) [Example 52, N-[1-(2,3-dihydro-1H-inden-5-yl)ethyl]-3-(4-fluorophenyl)-N-[2-(6-methylpyridin-2-yloxv)ethyl]butanamide] | 200 to 1000 |
| O=C(C1CC1c1ccc(F)cc1)N(Cc1ccccn1)C(c1ccc(Cl)cc1)C1CC1 (stereo not shown) [Example 10, N-[(4-chlorophenyl)(cyclopropyl)methyl]-2-(4-fluorophenyl)-N-(pyridin-2-ylmethyl)cyclopropanecarboxamide] | < 50 |
| CC(c1ccc2c(c1)CCC2)N(Cc1ccccn1)C(=O)CCc1ccc(F)cc1 (stereo not shown) [Example 67, N-[1-(2,3-dihydro-1H-inden-5-yl)ethyl]-3-(4-fluorophenyl)-N-(pyridin-2-ylmethyl)propanamide] | 200 to 1000 |
| CC(c1ccccc1)N(Cc1ccccn1)C(=O)CCc1ccc(F)cc1 (stereo not shown) [Example 42, 3-(4-fluorophenyl)-N-(1-phenylethyl)-N-(pyridin-2-ylmethyl)propanamide] | 200 to 1000 |
| CCC(CC)C(c1ccccc1)N(Cc1ccccn1)C(=O)CCc1ccc(F)cc1 (stereo not shown) [Example 22, N-(2-ethyl-1-phenylbutyl)-3-(4-fluorophenyl)-N-(pyridin-2-ylmethyl)propanamide] | 200 to 1000 |
